Read-outs that look alike come from different tables or passages of the source. Starred links: 1 amine or outer side, 2 acyl side, 3 side chain; linkers in the order of their positions; H or OH if unused. Positions of bridges follow the written chain, without caps; N, C: chain ends. Non-standard residues stand in square brackets, D forms with d. Residues, ends and D or L forms follow the SMILES beside them. *: point of attachment. Phe(3-OCH2COOH) = N[C@@H](Cc1cccc(OCC(=O)O)c1)C(=O)O; Phe(4-COOH) = N[C@@H](Cc1ccc(C(=O)O)cc1)C(=O)O; Trp(7-aza) = N[C@@H](Cc1c[nH]c2ncccc12)C(=O)O; Piperazinyl(4-CH2COOH) = O=C(O)CN1CCN(*)CC1; NMe2Nal = CN[C@@H](Cc1ccc2ccccc2c1)C(=O)O; 3Pal(6-NH2) = Nc1ccc(C[C@H](N)C(=O)O)cn1; 1Nal = N[C@@H](Cc1cccc2ccccc12)C(=O)O; Gly(N(CH2)3COOH) = O=C(O)CCCNCC(=O)O; X1 = CCCCCCC[C@H](N[*:1])C(=O)[*:2]; NMeF = CN[C@@H](Cc1ccccc1)C(=O)O; 4Pal = N[C@@H](Cc1ccncc1)C(=O)O; NMeE = CN[C@@H](CCC(=O)O)C(=O)O; NMeC = CN[C@@H](CS)C(=O)O; NMeA = CN[C@@H](C)C(=O)O; Sar = CNCC(=O)O
Key:
GDF-11 = biological target: T1, GDF-11 (Homo sapiens, UniProt O95390); test: HepG2 reporter gene assay, Evaluation Procedure (2): 2-concentrations assay, GDF-11 inhibition; format: cell-based; settings: for inhibition at 0.03 µM: HepG2, peptide 30nM, read-out: GDF11 Inhibition 30nM; for inhibition at 0.03 µM / inhibition at 0.1 µM: GDF-11 10 ng/mL; for inhibition at 0.1 µM: HepG2, peptide 100nM, read-out: GDF11 Inhibition 100nM; for inhibition: read-out: inhibition rate (GDF-11 inhibition assay)
T1 construct: purchased R&D systems 1958-GD-G8/CF
T1 sequence (O95390 299-407): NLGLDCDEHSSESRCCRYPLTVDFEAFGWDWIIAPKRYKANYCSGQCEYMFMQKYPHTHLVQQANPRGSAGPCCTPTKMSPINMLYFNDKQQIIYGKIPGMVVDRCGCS
Method: (§1) The pGL3(CAGA)12-luc plasmid, namely a pGL3 vector (E1751, Promega) having a luciferase gene inserted downstream of a promoter sequence with 12 CAGA repeats attached, was transfected into HepG2 cell line (HB-8065, ATCC). The culture of HepG2 cell line (HB-8065, ATCC) was performed as in the Evaluation Procedure (1).
(§2) Myostatin (788-G8/CF, R&D systems) or GDF-11 (1958-GD-G8/CF, R&D systems) was added at a final concentration of 10 ng/mL. […] At this time, blank wells, in which neither myostatin, GDF-11, nor each peptide was added, were also prepared and incubated in a CO2 incubator (37°C, 5% CO2) for 20 to 24 hours.
(§3) The medium containing the cells was removed, and a mixture containing PBS (14190144, Thermo) and a chromogenic substrate One-Glo Luciferase Assay System (E6120, Promega) at a ratio of 1:1 was added to each well at 100 µL/well. This was stirred with a plate shaker for 5 min and transferred to a 384-well plate (3570, Corning) at a volume of 20 µL/well.
(§4) The plate was centrifuged at 1,000 × g for 1 min and the luminescence signal (700 nm luminescence) was measured using a plate reader (Envision 2104, PerkinElmer). Based on the measurement results, the inhibition rate at each peptide concentration was calculated. […]

Myostatin = biological target: T2, Myostatin (Homo sapiens, UniProt O14793); test: HepG2 reporter gene assay, Evaluation Procedure (2): 2-concentrations assay, myostatin inhibition; format: cell-based; settings: HepG2
T2 construct: active myostatin (also called mature myostatin) is a homodimer consisting of two C-terminal growth factor domains; purchased R&D systems 788-G8/CF
T2 sequence (O14793 267-375): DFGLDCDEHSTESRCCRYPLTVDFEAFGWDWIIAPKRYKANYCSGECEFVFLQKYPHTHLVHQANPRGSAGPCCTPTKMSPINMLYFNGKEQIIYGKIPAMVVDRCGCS
Method: as §1, §2, §3, §4

[1] = peptide 30nM, Myostatin 10 ng/mL, read-out: Myostatin Inhibition 30nM
[2] = peptide 100nM, Myostatin 10 ng/mL, read-out: Myostatin Inhibition 100nM
[3] = HepG2, first GDF-11 column of Table 7-3/7-4, GDF-11 10 ng/mL, peptide at the lower of the 2 concentrations
[4] = HepG2, second GDF-11 column of Table 7-3/7-4, GDF-11 10 ng/mL, peptide at the higher of the 2 concentrations
[5] = Table 7-3/7-4, myostatin 10 ng/mL, peptide at the higher of the 2 concentrations, read-out: inhibition rate (myostatin inhibition assay)
[6] = Table 7-3/7-4, myostatin 10 ng/mL, peptide at the lower of the 2 concentrations, read-out: inhibition rate (myostatin inhibition assay)

## CC[C@H](C)[C@@H]1NC(=O)[C@H](Cc2ccccc2)N(C)C(=O)[C@H](Cc2ccc(O)cc2)NC(=O)[C@H](Cc2c[nH]c3ncccc23)NC(=O)[C@H](C)NC(=O)CN(CCCC(=O)O)C(=O)CSC[C@H](C(N)=O)NC(=O)[C@H](Cc2ccccc2)N(C)C(=O)[C@H](C)N(C)C(=O)[C@H](CC(C)C)NC(=O)[C@H](Cc2ccccc2)N(C)C(=O)[C@H](CCCNC(=N)N)NC(=O)[C@H](Cc2ccc(C(=O)O)cc2)NC(=O)[C@H](Cc2ccccc2)NC(=O)CN(C)C1=O [Myostatin_99_Variant_20] ({CH2CO}-[Gly(N(CH2)3COOH)]A[Trp(7-aza)]Y[NMeF]I[Sar]F[Phe(4-COOH)]R[NMeF]L[NMeA][NMeF][dC]-NH2; thioether N-15)
GDF-11
  inhibition at 0.03 µM: 0%
  inhibition at 0.1 µM: 0%
Myostatin; [1]
  inhibition at 0.03 µM: 62%
Myostatin; [2]
  inhibition at 0.1 µM: 89%

## CCCCCCC[C@@H]1NC(=O)[C@H](Cc2ccccc2)N(C)C(=O)[C@H](CCCNC(=N)N)NC(=O)[C@H](Cc2ccc(C(=O)O)cc2)NC(=O)[C@H](Cc2cccc(OCC(=O)O)c2)NC(=O)CN(C)C(=O)[C@H]([C@@H](C)CC)NC(=O)[C@H](Cc2ccccc2)N(C)C(=O)[C@H](Cc2ccc(O)cc2)NC(=O)[C@H](Cc2c[nH]c3ccccc23)NC(=O)[C@H](C)NC(=O)[C@H](C)NC(=O)CSC[C@H](C(=O)N2CCN(CC(=O)O)CC2)NC(=O)[C@H](Cc2ccccc2)N(C)C(=O)[C@H](CCC(=O)O)N(C)C1=O [Myostatin_99_v311] ({CH2CO}-AAWY[NMeF]I[Sar][Phe(3-OCH2COOH)][Phe(4-COOH)]R[NMeF][X1][NMeE][NMeF][dC]-{Piperazinyl(4-CH2COOH)}; thioether N-15)
GDF-11; [3]
  inhibition: 0%
GDF-11; [4]
  inhibition: 5%
Myostatin; [5]
  inhibition at 0.1 µM: 100%
Myostatin; [6]
  inhibition at 0.03 µM: 99%

## CCCCCCC[C@@H]1NC(=O)[C@H](Cc2ccccc2)N(C)C(=O)[C@H](CCCNC(=N)N)NC(=O)[C@H](Cc2ccc(C(=O)O)cc2)NC(=O)[C@H](Cc2cccc(OCC(=O)O)c2)NC(=O)CN(C)C(=O)[C@H]([C@@H](C)CC)NC(=O)[C@H](Cc2ccc3ccccc3c2)N(C)C(=O)[C@H](Cc2ccc(O)cc2)NC(=O)[C@H](Cc2c[nH]c3ccccc23)NC(=O)[C@H](C)NC(=O)[C@H](C)NC(=O)CSC[C@H](C(=O)N2CCN(CC(=O)O)CC2)NC(=O)[C@H](Cc2ccccc2)N(C)C(=O)[C@H](C)N(C)C1=O [Myostatin_99_v306] ({CH2CO}-AAWY[NMe2Nal]I[Sar][Phe(3-OCH2COOH)][Phe(4-COOH)]R[NMeF][X1][NMeA][NMeF][dC]-{Piperazinyl(4-CH2COOH)}; thioether N-15)
GDF-11; [3]
  inhibition: 0%
GDF-11; [4]
  inhibition: 0%
Myostatin; [5]
  inhibition at 0.1 µM: 94%
Myostatin; [6]
  inhibition at 0.03 µM: 80%

## CC[C@H](C)[C@@H]1NC(=O)[C@H](Cc2ccccc2)N(C)C(=O)[C@H](Cc2ccc(O)cc2)NC(=O)[C@H](Cc2c[nH]c3ccccc23)NC(=O)[C@H](C)NC(=O)CN(CCCC(=O)O)C(=O)CSC[C@H](C(N)=O)NC(=O)[C@H](Cc2ccccc2)N(C)C(=O)[C@H](C)N(C)C(=O)[C@H](CC(C)C)NC(=O)[C@H](Cc2ccccc2)N(C)C(=O)[C@H](CCCNC(=N)N)NC(=O)[C@H](Cc2ccc(C(=O)O)cc2)NC(=O)[C@H](Cc2ccncc2)NC(=O)CN(C)C1=O [Myostatin_99_Variant_18] ({CH2CO}-[Gly(N(CH2)3COOH)]AWY[NMeF]I[Sar][4Pal][Phe(4-COOH)]R[NMeF]L[NMeA][NMeF][dC]-NH2; thioether N-15)
GDF-11
  inhibition at 0.03 µM: 0%
  inhibition at 0.1 µM: 0%
Myostatin; [1]
  inhibition at 0.03 µM: 56%
Myostatin; [2]
  inhibition at 0.1 µM: 80%

## CC[C@H](C)[C@@H]1NC(=O)[C@H](Cc2ccccc2)N(C)C(=O)[C@H](Cc2ccc(N)nc2)NC(=O)[C@H](Cc2c[nH]c3ncccc23)NC(=O)[C@H](C)NC(=O)CN(CCCC(=O)O)C(=O)CSC[C@H](C(N)=O)NC(=O)[C@H](Cc2ccccc2)N(C)C(=O)[C@H](C)N(C)C(=O)[C@H](CC(C)C)NC(=O)[C@H](Cc2ccccc2)N(C)C(=O)[C@H](CCCNC(=N)N)NC(=O)[C@H](Cc2ccc(C(=O)O)cc2)NC(=O)[C@H](Cc2ccccc2)NC(=O)CN(C)C1=O [Myostatin_99_Variant_24] ({CH2CO}-[Gly(N(CH2)3COOH)]A[Trp(7-aza)][3Pal(6-NH2)][NMeF]I[Sar]F[Phe(4-COOH)]R[NMeF]L[NMeA][NMeF][dC]-NH2; thioether N-15)
GDF-11
  inhibition at 0.03 µM: 0%
  inhibition at 0.1 µM: 0%
Myostatin; [1]
  inhibition at 0.03 µM: 1%
Myostatin; [2]
  inhibition at 0.1 µM: 54%

## CCCCCCC[C@@H]1NC(=O)[C@H](Cc2ccccc2)N(C)C(=O)[C@H](CCCNC(=N)N)NC(=O)[C@H](Cc2ccc(C(=O)O)cc2)NC(=O)[C@H](Cc2cccc(OCC(=O)O)c2)NC(=O)CN(C)C(=O)[C@H]([C@@H](C)CC)NC(=O)[C@H](Cc2ccccc2)N(C)C(=O)[C@H](Cc2cccc3ccccc23)NC(=O)[C@H](Cc2c[nH]c3ccccc23)NC(=O)[C@H](C)NC(=O)[C@H](C)NC(=O)CSC[C@H](C(=O)N2CCN(CC(=O)O)CC2)NC(=O)[C@H](Cc2ccccc2)N(C)C(=O)[C@H](C)N(C)C1=O [Myostatin_99_v300] ({CH2CO}-AAW[1Nal][NMeF]I[Sar][Phe(3-OCH2COOH)][Phe(4-COOH)]R[NMeF][X1][NMeA][NMeF][dC]-{Piperazinyl(4-CH2COOH)}; thioether N-15)
GDF-11
  inhibition at 0.03 µM: 0%
  inhibition at 0.1 µM: 0%
Myostatin; [1]
  inhibition at 0.03 µM: 81%
Myostatin; [2]
  inhibition at 0.1 µM: 97%

## CC[C@H](C)[C@@H]1NC(=O)[C@H](Cc2ccccc2)N(C)C(=O)[C@H](Cc2ccc(O)cc2)NC(=O)[C@H](Cc2c[nH]c3ccccc23)NC(=O)[C@@H](C)NC(=O)[C@H](C)NC(=O)CSC[C@H](C(N)=O)NC(=O)[C@H](Cc2ccccc2)N(C)C(=O)[C@H](C)N(C)C(=O)[C@H](CC(C)C)NC(=O)[C@H](Cc2ccccc2)N(C)C(=O)[C@H](CCCNC(=N)N)NC(=O)[C@H](Cc2ccc(O)cc2)NC(=O)[C@H](Cc2ccc(O)cc2)NC(=O)CN(C)C1=O [Myostatin_99_2da_15dc_NH2] ({CH2CO}-A[dA]WY[NMeF]I[Sar]YYR[NMeF]L[NMeA][NMeF][dC]-NH2; thioether N-15)
GDF-11
  inhibition at 0.03 µM: 15%
  inhibition at 0.1 µM: 48%
Myostatin; [1]
  inhibition at 0.03 µM: 94%
Myostatin; [2]
  inhibition at 0.1 µM: 98%

## CCCCCCC[C@@H]1NC(=O)[C@H](Cc2ccccc2)N(C)C(=O)[C@H](CCCNC(=N)N)NC(=O)[C@H](Cc2ccc(C(=O)O)cc2)NC(=O)[C@H](Cc2cccc(OCC(=O)O)c2)NC(=O)[C@H](C)N(C)C(=O)[C@H]([C@@H](C)CC)NC(=O)[C@H](Cc2ccccc2)N(C)C(=O)[C@H](Cc2ccc(O)cc2)NC(=O)[C@H](Cc2c[nH]c3ccccc23)NC(=O)[C@H](C)NC(=O)CN(CCCC(=O)O)C(=O)CSC[C@@H](C(N)=O)N(C)C(=O)[C@H](Cc2ccccc2)N(C)C(=O)[C@H](C)N(C)C1=O [Myostatin_99_v440] ({CH2CO}-[Gly(N(CH2)3COOH)]AWY[NMeF]I[NMeA][Phe(3-OCH2COOH)][Phe(4-COOH)]R[NMeF][X1][NMeA][NMeF][NMeC]-NH2; thioether N-15)
GDF-11; [3]
  inhibition: 0%
GDF-11; [4]
  inhibition: 9%
Myostatin; [5]
  inhibition at 0.1 µM: 100%
Myostatin; [6]
  inhibition at 0.03 µM: 99%

## CC[C@H](C)[C@@H]1NC(=O)[C@H](Cc2ccccc2)N(C)C(=O)[C@H](Cc2ccc(O)cc2)NC(=O)[C@H](Cc2c[nH]c3ncccc23)NC(=O)[C@H](C)NC(=O)CN(CCCC(=O)O)C(=O)CSC[C@H](C(N)=O)NC(=O)[C@H](Cc2ccccc2)N(C)C(=O)[C@H](C)N(C)C(=O)[C@H](CC(C)C)NC(=O)[C@H](Cc2ccccc2)N(C)C(=O)[C@H](CCCNC(=N)N)NC(=O)[C@H](Cc2ccc(C(=O)O)cc2)NC(=O)[C@H](Cc2ccc(O)cc2)NC(=O)CN(C)C1=O [Myostatin_99_Variant_14] ({CH2CO}-[Gly(N(CH2)3COOH)]A[Trp(7-aza)]Y[NMeF]I[Sar]Y[Phe(4-COOH)]R[NMeF]L[NMeA][NMeF][dC]-NH2; thioether N-15)
GDF-11
  inhibition at 0.03 µM: 0%
  inhibition at 0.1 µM: 1%
Myostatin; [1]
  inhibition at 0.03 µM: 41%
Myostatin; [2]
  inhibition at 0.1 µM: 73%

— patent EP4786487A1, “PEPTIDE” (Peptidream Inc, priority 2023, dated 2025)
